{"source": "the supplement of paper PMC10307832", "assay_in_all_cases": "relative viability (nuclei count vs DMSO), 5 days (fraction); higher = more cells survive", "key": {"Selisistat + Phenformin": {"compound": "C1CC(C2=C(C1)C3=C(N2)C=CC(=C3)Cl)C(=O)N [Selisistat] + N=C(N)NC(=N)NCCc1ccccc1 [Phenformin] (partner 250 µM)", "method_in_brief": "(§1)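 One day after seeding in 1536-well plates, lung cancer cell lines were dosed by pin tool. Dosing was either single-drug or a fixed anchor-drug dose plus five library-drug doses (not always all listed) in √10 steps. After 5 days, nuclei were stained in one fix-and-stain step and counted on 4× images, and relative viability is the nuclei count of treated wells over that of vehicle wells, given as the median of duplicate plates.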"}, "Serdemetan + Palbociclib": {"compound": "c1ccc2c(CCNc3ccc(Nc4ccncc4)cc3)c[nH]c2c1 [Serdemetan] + CC(=O)c1c(C)c2cnc(Nc3ccc(N4CCNCC4)cn3)nc2n(C2CCCC2)c1=O [Palbociclib] (partner 0.5 µM)", "method_in_brief": "as §1"}, "Serdemetan + Luminespib": {"compound": "c1ccc2c(CCNc3ccc(Nc4ccncc4)cc3)c[nH]c2c1 [Serdemetan] + CCNC(=O)c1noc(-c2cc(C(C)C)c(O)cc2O)c1-c1ccc(CN2CCOCC2)cc1 [Luminespib] (partner 0.01 µM)", "method_in_brief": "as §1"}, "Serdemetan + OSI-027": {"compound": "c1ccc2c(CCNc3ccc(Nc4ccncc4)cc3)c[nH]c2c1 [Serdemetan] + COc1cccc2cc(-c3nc([C@H]4CC[C@H](C(=O)O)CC4)n4ncnc(N)c34)[nH]c12 [OSI-027] (partner 0.5 µM)", "method_in_brief": "as §1"}}}
{"cell line": "UMC-11", "values": [{"measurement": "relative viability", "setting": "Selisistat + Phenformin; first compound 0.4 µM", "value": 0.337}, {"measurement": "relative viability", "setting": "Selisistat + Phenformin; first compound 1.265 µM", "value": 0.303}, {"measurement": "relative viability", "setting": "Selisistat + Phenformin; first compound 4 µM", "value": 0.302}, {"measurement": "relative viability", "setting": "Selisistat + Phenformin; first compound 12.65 µM", "value": 0.288}, {"measurement": "relative viability", "setting": "Selisistat + Phenformin; first compound 40 µM", "value": 0.303}, {"measurement": "relative viability", "setting": "Serdemetan + Palbociclib; first compound 0.04 µM", "value": 0.333}, {"measurement": "relative viability", "setting": "Serdemetan + Palbociclib; first compound 0.1265 µM", "value": 0.343}, {"measurement": "relative viability", "setting": "Serdemetan + Palbociclib; first compound 0.4 µM", "value": 0.381}, {"measurement": "relative viability", "setting": "Serdemetan + Palbociclib; first compound 1.265 µM", "value": 0.344}, {"measurement": "relative viability", "setting": "Serdemetan + Palbociclib; first compound 4 µM", "value": 0.281}, {"measurement": "relative viability", "setting": "Serdemetan + Luminespib; first compound 0.04 µM", "value": 0.938}, {"measurement": "relative viability", "setting": "Serdemetan + Luminespib; first compound 0.1265 µM", "value": 1.01}, {"measurement": "relative viability", "setting": "Serdemetan + Luminespib; first compound 4 µM", "value": 0.852}, {"measurement": "relative viability", "setting": "Serdemetan + OSI-027; first compound 0.04 µM", "value": 0.563}, {"measurement": "relative viability", "setting": "Serdemetan + OSI-027; first compound 0.1265 µM", "value": 0.485}, {"measurement": "relative viability", "setting": "Serdemetan + OSI-027; first compound 4 µM", "value": 0.428}]}
